Experimental data published in PubChem BioAssay (NCI).
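48-hour exposure; five concentrations; linearly interpolated endpoints. Abbreviation: GI50, concentration required for 50% inhibition of growth. TGI: total growth inhibition.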

What was measured:
Assay in all cases: growth of human tumour cells (NCI), 48 h
HT29 colon = tested on: HT29 colon
LOX IMVI melanoma = tested on: LOX IMVI melanoma
A498 renal = tested on: A498 renal
HCT-15 colon = tested on: HCT-15 colon
ACHN renal = tested on: ACHN renal
HCT-116 colon = tested on: HCT-116 colon
KM12 colon = tested on: KM12 colon
MCF7 breast = tested on: MCF7 breast
OVCAR-4 ovarian = tested on: OVCAR-4 ovarian
SF-295 CNS = tested on: SF-295 CNS
COLO 205 colon = tested on: COLO 205 colon
NCI-H226 lung = tested on: NCI-H226 lung
MALME-3M melanoma = tested on: MALME-3M melanoma
MOLT-4 leukemia = tested on: MOLT-4 leukemia
UACC-62 melanoma = tested on: UACC-62 melanoma
NCI-H460 lung = tested on: NCI-H460 lung
OVCAR-8 ovarian = tested on: OVCAR-8 ovarian
SK-MEL-5 melanoma = tested on: SK-MEL-5 melanoma
T-47D breast = tested on: T-47D breast
SNB-75 CNS = tested on: SNB-75 CNS
HCC-2998 colon = tested on: HCC-2998 colon
HOP-92 NSCLC = tested on: HOP-92 NSCLC
UACC-257 melanoma = tested on: UACC-257 melanoma
DU-145 prostate = tested on: DU-145 prostate
SN12C renal = tested on: SN12C renal
U251 CNS = tested on: U251 CNS
PC-3 prostate = tested on: PC-3 prostate
IGROV1 ovarian = tested on: IGROV1 ovarian
A549 NSCLC = tested on: A549 NSCLC
M14 melanoma = tested on: M14 melanoma
HS 578T breast = tested on: HS 578T breast
NCI-H522 lung = tested on: NCI-H522 lung
SK-MEL-28 melanoma = tested on: SK-MEL-28 melanoma
786-0 renal = tested on: 786-0 renal
HOP-62 NSCLC = tested on: HOP-62 NSCLC
SK-MEL-2 melanoma = tested on: SK-MEL-2 melanoma
NCI/ADR-RES ovarian = tested on: NCI/ADR-RES ovarian
UO-31 renal = tested on: UO-31 renal
SW-620 colon = tested on: SW-620 colon
SF-268 CNS = tested on: SF-268 CNS
SF-539 CNS = tested on: SF-539 CNS
OVCAR-3 ovarian = tested on: OVCAR-3 ovarian
BT-549 breast = tested on: BT-549 breast
HL-60(TB) leukemia = tested on: HL-60(TB) leukemia
SNB-19 CNS = tested on: SNB-19 CNS
RXF 393 renal = tested on: RXF 393 renal
SR leukemia = tested on: SR leukemia
MDA-MB-435 = tested on: MDA-MB-435
NCI-H23 lung = tested on: NCI-H23 lung
RPMI-8226 leukemia = tested on: RPMI-8226 leukemia
MDA-MB-231 breast = tested on: MDA-MB-231 breast
CCRF-CEM leukemia = tested on: CCRF-CEM leukemia
TK-10 renal = tested on: TK-10 renal
K-562 leukemia = tested on: K-562 leukemia
CAKI-1 renal = tested on: CAKI-1 renal
SK-OV-3 ovarian = tested on: SK-OV-3 ovarian
EKVX NSCLC = tested on: EKVX NSCLC
OVCAR-5 ovarian = tested on: OVCAR-5 ovarian

Cc1cc2cc3ccc(N(C)C)cc3nc2cc1N
GI50 (HT29 colon): 0.327 µM | TGI (HT29 colon): 1.76 µM | GI50 (LOX IMVI melanoma): 0.325 µM | TGI (LOX IMVI melanoma): 5.01 µM | GI50 (A498 renal): 0.433 µM | TGI (A498 renal): 2.05 µM | GI50 (HCT-15 colon): 1.4 µM | TGI (HCT-15 colon): 17.8 µM | GI50 (ACHN renal): 0.423 µM | TGI (ACHN renal): 5.75 µM | GI50 (HCT-116 colon): 0.279 µM | TGI (HCT-116 colon): 1.45 µM | GI50 (KM12 colon): 0.439 µM | TGI (KM12 colon): 2.18 µM | GI50 (MCF7 breast): 0.35 µM | TGI (MCF7 breast): 11.2 µM | GI50 (OVCAR-4 ovarian): 0.904 µM | TGI (OVCAR-4 ovarian): 4.46 µM | GI50 (SF-295 CNS): 0.273 µM | TGI (SF-295 CNS): 2.03 µM | GI50 (COLO 205 colon): 0.389 µM | TGI (COLO 205 colon): 2.01 µM | GI50 (NCI-H226 lung): 0.584 µM | TGI (NCI-H226 lung): 3.6 µM | GI50 (MALME-3M melanoma): 0.929 µM | TGI (MALME-3M melanoma): 3.42 µM | GI50 (MOLT-4 leukemia): 0.438 µM | TGI (MOLT-4 leukemia): 9.31 µM | GI50 (UACC-62 melanoma): 0.744 µM | TGI (UACC-62 melanoma): 2.71 µM | GI50 (NCI-H460 lung): 0.234 µM | TGI (NCI-H460 lung): 0.68 µM | GI50 (OVCAR-8 ovarian): 0.374 µM | TGI (OVCAR-8 ovarian): 2.36 µM | GI50 (SK-MEL-5 melanoma): 0.767 µM | TGI (SK-MEL-5 melanoma): 2.25 µM | GI50 (T-47D breast): 0.434 µM | TGI (T-47D breast): 3.5 µM | GI50 (SNB-75 CNS): 1.04 µM | TGI (SNB-75 CNS): 2.3 µM | GI50 (HCC-2998 colon): 0.33 µM | TGI (HCC-2998 colon): 1.34 µM | GI50 (HOP-92 NSCLC): 1.14 µM | TGI (HOP-92 NSCLC): 4.69 µM | GI50 (UACC-257 melanoma): 1.12 µM | TGI (UACC-257 melanoma): 3.04 µM | GI50 (DU-145 prostate): 0.437 µM | TGI (DU-145 prostate): 2.45 µM | GI50 (SN12C renal): 0.411 µM | TGI (SN12C renal): 4.54 µM | GI50 (U251 CNS): 0.312 µM | TGI (U251 CNS): 1.61 µM | GI50 (PC-3 prostate): 0.992 µM | TGI (PC-3 prostate): 4.91 µM | GI50 (IGROV1 ovarian): 0.528 µM | TGI (IGROV1 ovarian): 2.9 µM | GI50 (A549 NSCLC): 0.431 µM | TGI (A549 NSCLC): 2.61 µM | GI50 (M14 melanoma): 0.682 µM | TGI (M14 melanoma): 2.14 µM | GI50 (HS 578T breast): 0.51 µM | TGI (HS 578T breast): 3.48 µM | GI50 (NCI-H522 lung): 0.612 µM | TGI (NCI-H522 lung): 2.4 µM | GI50 (SK-MEL-28 melanoma): 1.69 µM | TGI (SK-MEL-28 melanoma): 4.74 µM | GI50 (786-0 renal): 0.597 µM | TGI (786-0 renal): 2.47 µM | GI50 (HOP-62 NSCLC): 0.481 µM | TGI (HOP-62 NSCLC): 2.45 µM | GI50 (SK-MEL-2 melanoma): 0.392 µM | TGI (SK-MEL-2 melanoma): 1.6 µM | GI50 (NCI/ADR-RES ovarian): 2.51 µM | TGI (NCI/ADR-RES ovarian): 23.4 µM | GI50 (UO-31 renal): 0.642 µM | TGI (UO-31 renal): 5.01 µM | GI50 (SW-620 colon): 0.334 µM | TGI (SW-620 colon): 1.92 µM | GI50 (SF-268 CNS): 0.611 µM | TGI (SF-268 CNS): 2.32 µM | GI50 (SF-539 CNS): 0.658 µM | TGI (SF-539 CNS): 2.49 µM | GI50 (OVCAR-3 ovarian): 0.502 µM | TGI (OVCAR-3 ovarian): 2.45 µM | GI50 (BT-549 breast): 1.64 µM | TGI (BT-549 breast): 3.82 µM | GI50 (HL-60(TB) leukemia): 0.805 µM | TGI (HL-60(TB) leukemia): 5.09 µM | GI50 (SNB-19 CNS): 0.582 µM | TGI (SNB-19 CNS): 4.42 µM | GI50 (RXF 393 renal): 0.41 µM | TGI (RXF 393 renal): 1.34 µM | GI50 (SR leukemia): 0.536 µM | TGI (SR leukemia): 5.68 µM | GI50 (MDA-MB-435): 0.703 µM | TGI (MDA-MB-435): 2.28 µM | GI50 (NCI-H23 lung): 0.49 µM | TGI (NCI-H23 lung): 4.42 µM | GI50 (RPMI-8226 leukemia): 0.637 µM | TGI (RPMI-8226 leukemia): 5.55 µM | GI50 (MDA-MB-231 breast): 1.12 µM | TGI (MDA-MB-231 breast): 2.88 µM | GI50 (CCRF-CEM leukemia): 0.772 µM | TGI (CCRF-CEM leukemia): 10.7 µM | GI50 (TK-10 renal): 1.41 µM | TGI (TK-10 renal): 9.44 µM | GI50 (K-562 leukemia): 0.418 µM | TGI (K-562 leukemia): > 21 µM | GI50 (CAKI-1 renal): 0.321 µM | TGI (CAKI-1 renal): 1.35 µM | GI50 (SK-OV-3 ovarian): 0.552 µM | TGI (SK-OV-3 ovarian): 3.35 µM | GI50 (EKVX NSCLC): 0.273 µM | TGI (EKVX NSCLC): 3.11 µM | GI50 (OVCAR-5 ovarian): 1.26 µM | TGI (OVCAR-5 ovarian): 6.55 µM
